From ChEMBL document CHEMBL5226309, “Synthetic RNA Modulators in Drug Discovery” (J Med Chem, 2021)

How the values were obtained:
[1] = Antiproliferative activity against human U87 cells assessed as reduction in cell viability by XTT assay; format: functional, cell-based, U-87MG ATCC; details: U-87 MG
A498 = experiment: Antiproliferative activity against human A498 cells assessed as reduction in cell viability by XTT assay; format: functional, cell-based
HeLa [2] = experiment: Inhibition of miR-21 in human HeLa cells assessed as reduction in relative light unit at 10 uM by luciferase reporter assays relative to control; format: cell-based
[3] = Downregulation of alpha-Synuclein level in human SH-SY5Y cells at 5 uM relative to control; format: functional
[4] = Binding affinity to HIV-1 mRNA assessed as dissociation constant; set-up: species or system Human immunodeficiency virus 1
HEK293 [5] = experiment: Inhibition of miR-125a in human HEK293 cells relative to control; format: cell-based; details: dose or concentration not given here
HEK293 [6] = experiment: Inhibition of miR-125a in human HEK293 cells assessed as increase in mature miR-21 level at 50 uM relative to control; format: cell-based
HEK293 [7] = experiment: Inhibition of miR-125a in human HEK293 cells assessed as increase in pre miR-21 level at 50 uM relative to control; format: cell-based
[8] = Inhibition of miR-21 (unknown origin) maturation assessed as reduction in pre-miR-21 expression at 10 uM by RT-PCR analysis relative to control
[9] = Inhibition of miR-21 (unknown origin) by luciferase reporter assays relative to control; details: concentration not given here
[10] = target: T1, Muscleblind-like protein 1 (Homo sapiens) (UniProt Q9NR56); experiment: Inhibition of MBNL1 (unknown origin) in human GDM-1 cells assessed as rescue of IR exon splicing defect at 100 pM by PCR analysis relative to control; format: cell-based
T1 sequence (whole entry): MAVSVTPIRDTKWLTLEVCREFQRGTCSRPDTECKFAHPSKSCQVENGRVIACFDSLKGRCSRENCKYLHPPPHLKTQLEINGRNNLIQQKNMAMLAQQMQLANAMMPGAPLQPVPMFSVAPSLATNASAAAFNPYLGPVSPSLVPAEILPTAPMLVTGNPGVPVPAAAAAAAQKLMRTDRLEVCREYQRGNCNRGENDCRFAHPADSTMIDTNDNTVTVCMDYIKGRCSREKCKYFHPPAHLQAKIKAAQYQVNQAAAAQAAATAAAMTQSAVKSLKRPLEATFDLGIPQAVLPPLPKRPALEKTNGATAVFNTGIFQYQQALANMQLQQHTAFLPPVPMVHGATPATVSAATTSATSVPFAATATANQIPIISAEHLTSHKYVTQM

[11] = Binding affinity to TAR mRNA assessed as dissociation constant by ITC analysis
[12] = Displacement of Tat from TAR mRNA by FRET analysis
[13] = Binding affinity to pre-miR-21 (unknown origin) assessed as dissociation constant by Monolith NT.115 microscale thermophoresis based analysis
[14] = Inhibition of miR-21 (unknown origin) at 1 uM by differential scanning fluorometry analysis relative to control
[15] = Inhibition of miR-21 in human MDA-MB-231 cells; format: cell-based
A-375 = experiment: Inhibition of miR-21 in human A-375 cells assessed as decrease in pre-miR-21 level at 50 nM relative to control; format: cell-based
MDA-MB-231 = experiment: Inhibition of miR-21 in human MDA-MB-231 cells assessed as decrease in pre-miR-21 level at 50 nM relative to control; format: cell-based
A549 = experiment: Inhibition of miR-21 in human A549 cells assessed as decrease in pre-miR-21 level at 50 nM relative to control; format: cell-based
[16] = Inhibition of 5'FAM-labeled and 3'DAB-labeled Precursor microRNA-372 (unknown origin) assessed as inhibition of Dicer-induced pre-miR-372 cleavage by measuring fluorescence incubated for 30 min in presence of human recombinant Dicer by FRET Dicer assay
[17] = Inhibition of 5'FAM-labeled and 3'DAB-labeled Precursor microRNA-373 (unknown origin) assessed as inhibition of Dicer-induced pre-miR-373 cleavage by measuring fluorescence incubated for 30 min in presence of human recombinant Dicer by FRET Dicer assay
[18] = Induction of mRNA mediated IPRF assessed as increase in frame shifting efficiency at 10 uM in presence of M2-VPK sequence relative to control
HeLa [19] = experiment: Induction of mRNA mediated IPRF in human HeLa cells assessed as increase in frame shifting efficiency at 0.3 uM in presence of M2-FPK sequence relative to control; format: cell-based
[20] = Induction of mRNA mediated IPRF assessed as increase in frame shifting efficiency at 10 uM relative to control
HeLa [21] = experiment: Induction of mRNA mediated IPRF in human HeLa cells assessed as increase in frame shifting efficiency at 0.3 uM in presence of M1-FPK sequence relative to control; format: cell-based
HeLa [22] = experiment: Induction of mRNA mediated IPRF in human HeLa cells assessed as increase in frame shifting efficiency at 10 uM in presence of F-VPK sequence relative to control; format: cell-based
[23] = Binding affinity to miR-21 (unknown origin) at 5 uM by differential scanning fluorometry analysis relative to control
[24] = Binding affinity to miR-21 (unknown origin) assessed as dissociation constant
[25] = Induction of apoptosis in human U-87 MG cells; format: functional, U-87MG ATCC
HeLa [26] = experiment: Induction of apoptosis in human HeLa cells; format: functional
[27] = Downregulation of miR-122 expression in human Huh-7 cells at 10 uM incubated for 48 hrs by RT-PCR analysis relative to control; format: functional
Hepatitis C virus = experiment: Antiviral activity against HCV JFH-1 infected in human Huh-7 cells assessed as reduction in viral replication measured after 48 hrs by RT-PCR analysis relative to control; format: functional, Hepacivirus hominis; set-up: scale not given: the % may be the effect or the level left
[28] = Inhibition of Precursor microRNA-372 (unknown origin) assessed as inhibition of Dicer-induced pre-miR-372 cleavage
[29] = Binding affinity to Precursor microRNA-372 (unknown origin) assessed as dissociation constant
[30] = Upregulation of miR-122 expression in human Huh-7 cells at 10 uM incubated for 48 hrs by RT-PCR analysis relative to control; format: functional
[31] = Binding affinity to miR-21 (unknown origin) assessed as dissociation constant by fluorescence based analysis
[32] = Inhibition of miR-21 in human AGS cells assessed as decrease in pre-miR-21 level; format: cell-based
AGS [33] = experiment: Inhibition of miR-21 in human AGS cells assessed as decrease in pre-miR-21 level relative to control; format: cell-based; details: dose or concentration not given here
AGS [34] = experiment: Antiproliferative activity against human AGS cells assessed as reduction in cell viability at 25 uM measured after 4 days by CellTiter96 assay relative to control; format: functional; details: 96 h, time 4 day

C#CCOc1ccc(-c2noc(-c3nnn(-c4cccc(/C(C)=N/O)c4)c3N)n2)cc1
IC50 [1]: 3300 nM
IC50 (A498): 100000 nM
RLU (HeLa [2]): 2.19

c1cc(C2=NCCN2)ccc1Oc1ccc(-c2cc3ccc(C4=NCCN4)cc3[nH]2)cc1
Activity [3]: 40%

CC(=O)Nc1nc(-c2cccc(NC(=O)C(CNC(=O)[C@@H](N)CCCNC(=N)N)NC(=O)[C@@H](N)CCCNC(=N)N)c2)cs1 (stereo partly specified)
Kd [4]: 2400 nM

CCn1cc(C(=O)NC(C)(C)C)c(=O)c2cc(F)c(N3CCNCC3)nc21
inhibition (HEK293 [5]): 20%

CCn1cc(C(=O)O)c(=O)c2cc(F)c(N3CCNCC3)nc21
inhibition (HEK293 [6]): 150%
inhibition (HEK293 [7]): 100%
inhibition (HEK293 [5]): 100%

C#CCNC(=O)c1ccc(/N=N/c2ccccc2)cc1
inhibition [8]: 78%
inhibition [9]: 11%

C#CC(=O)NCCCCCC(=O)N(CCN(C)C(=O)CCCOc1cccc(-c2nc3ccc(-c4nc5ccc(N6CCN(C)CC6)cc5[nH]4)cc3[nH]2)c1)CC(=O)N(C)[C@@H](C)C(=O)N(C)[C@@H](C)C(=O)N(C)[C@@H](C)C(=O)N(CCCCN(C)C(=O)CCCOc1cccc(-c2nc3ccc(-c4nc5ccc(N6CCN(C)CC6)cc5[nH]4)cc3[nH]2)c1)CC(=O)N(CCCN=[N+]=[N-])CC(N)=O
inhibition [10]: 100%

CN(C)CCCn1cc(CNC(=O)Cc2csc(NC(=O)Cc3csc(N)n3)n2)nn1
Kd [11]: 540 nM
DC50 [12]: 1500 nM

CCCN(CC(=O)N(CCC)CC(=O)N(CCC)CC(=O)N(CC(=O)O)Cc1cn(CCCNC(=O)CCCOc2ccc(-c3nc4ccc(-c5ccc(N6CCN(C)CC6)cc5)cc4[nH]3)cc2)nn1)C(=O)CNCc1cn(CCCNC(=O)CCCOc2ccc(-c3nc4ccc(-c5ccc(N6CCN(C)CC6)cc5)cc4[nH]3)cc2)nn1
Kd [13]: 980 nM

Cc1ccccc1NCC(O)Cn1c2ccc(Br)cc2c2cc(Br)ccc21 (stereo unspecified)
inhibition [14]: 47%

N#Cc1ccc(Nc2ccc(-c3nc4ccc(C#N)cc4[nH]3)cc2)cc1
Activity [3]: 40%

CCCN(CC(=O)N(CCC)CC(=O)N(CCC)CC(=O)N(CC(=O)NCCOCCOCCOCCOc1ccc(/C=C2\SC(Nc3ccccc3)=C(C(=O)OCC)C2=O)cc1O)Cc1cn(CCCNC(=O)CCCOc2ccc(-c3nc4ccc(-c5ccc(N6CCN(C)CC6)cc5)cc4[nH]3)cc2)nn1)C(=O)CNCc1cn(CCCNC(=O)CCCOc2ccc(-c3nc4ccc(-c5ccc(N6CCN(C)CC6)cc5)cc4[nH]3)cc2)nn1
IC50 [15]: 50 nM
inhibition (A-375): 50%
inhibition (MDA-MB-231): 50%
inhibition (A549): 50%

c1cc(C2=NCCN2)ccc1Oc1ccc(-c2nc3ccc(C4=NCCN4)cc3[nH]2)cc1
Activity [3]: 40%

NC[C@@H]1O[C@H](O[C@H]2[C@@H](O)[C@H](O[C@@H]3[C@@H](O)[C@H](N)C[C@H](N)[C@H]3O[C@H]3O[C@H](CN)[C@@H](O)[C@H](O)[C@H]3N)O[C@@H]2Cn2cc(CCC(=O)Nc3ccc(-c4csc(NC(=O)c5ccc(N)cc5)n4)cc3)nn2)[C@H](N)[C@@H](O)[C@@H]1O
IC50 [16]: 1080 nM
IC50 [17]: 1100 nM

Cc1ccc2ccc(NC(=O)CCN(CCCCCCCCN(CCC(=O)Nc3ccc4ccc(C)nc4n3)CCC(=O)Nc3ccc4ccc(C)nc4n3)CCC(=O)Nc3ccc4ccc(C)nc4n3)nc2n1
Activity [18]: 15%
Activity (HeLa [19]): 0.32%
Activity [20]: 13%
Activity (HeLa [21]): 0.35%
Activity (HeLa [22]): 21%

NC[C@H]1O[C@H](O[C@H]2[C@H](O)[C@@H](O[C@H]3O[C@H](CNC(=O)CCC(=O)N[C@@H](Cc4ccccc4)C(=O)N[C@@H](CS)C(N)=O)[C@@H](O)[C@H](N)[C@H]3O)[C@H](N)C[C@@H]2N)[C@H](O)[C@@H](O)[C@@H]1O
Activity [23]: 140%
Kd [24]: 4.36 nM

C#CCNC(=O)c1ccc(NC(=O)c2ccccc2Br)cc1
Activity [25]: 13%
Activity (HeLa [26]): 24%

O=C(Nc1ccc2ccccc2c1)c1ccc(Cl)cc1Cl
Activity [27]: 72%
Activity (Hepatitis C virus): 48%

CNc1ccc(C2c3ccccc3N=C(NCCCNCCCCNCCCN)C2(C)C)cc1 (stereo unspecified)
IC50 [28]: 1060 nM
Kd [29]: 150 nM

CN(C)CCN1C(=O)c2cccc3cc(N)cc(c23)C1=O [AMONAFIDE]
Activity [30]: 450%

CNC(=O)c1cc(Oc2ccc(NC(=O)Nc3ccc(Cl)c(C(F)(F)F)c3)c(F)c2)ccn1 [REGORAFENIB]
Kd [31]: 730 nM

COc1ccc(NCC(O)Cn2c3ccc(Br)cc3c3cc(Br)ccc32)cc1 (stereo unspecified)
inhibition [14]: 59%

CC(=O)Nc1csc(-c2cccc(NC(=O)CCc3cn(C[C@H]4O[C@@H](O[C@@H]5[C@@H](O)[C@H](N)C[C@H](N)[C@H]5O[C@H]5O[C@H](CN)[C@@H](O)[C@H](O)[C@H]5N)[C@H](O)[C@@H]4O[C@H]4O[C@@H](CN)[C@@H](O)[C@H](O)[C@H]4N)nn3)c2)n1
IC50 [32]: 2420 nM
inhibition (AGS [33]): 100%

NC[C@@H]1O[C@H](O[C@H]2[C@@H](O)[C@H](O[C@@H]3[C@@H](O)[C@H](N)C[C@H](N)[C@H]3O[C@H]3O[C@H](CN)[C@@H](O)[C@H](O)[C@H]3N)O[C@@H]2Cn2cc(CCC(=O)Nc3ccc(-c4csc(NC(=O)c5ccc(Cl)cc5)n4)cc3)nn2)[C@H](N)[C@@H](O)[C@@H]1O
IC50 [16]: 980 nM
IC50 [17]: 2190 nM
inhibition at 25 µM (AGS [34]): 50%

CCn1cc(C(=O)NCc2ccccc2)c(=O)c2cc(F)c(N3CCNCC3)nc21
inhibition (HEK293 [5]): 30%

NC[C@@H]1O[C@H](O[C@H]2[C@@H](O)[C@H](O[C@@H]3[C@@H](O)[C@H](N)C[C@H](N)[C@H]3O[C@H]3O[C@H](CN)[C@@H](O)[C@H](O)[C@H]3N)O[C@@H]2CSCCNC(=O)CCCCCn2cc(COc3ccc4c(c3)C(=O)N(O)C(=O)C4)nn2)[C@H](N)[C@@H](O)[C@@H]1O
inhibition [14]: 90%

O=S(=O)(c1ccc2c(c1)CCCN2)N1CCC[C@@H]2CCCC[C@H]21
Activity [27]: 45%
Activity (Hepatitis C virus): 47%

CN(C)CCCn1cc(CNC(=O)c2csc(NC(=O)c3csc(NC(=O)c4csc(N)n4)n3)n2)nn1
Kd [11]: 6700 nM
DC50 [12]: 10600 nM
